target: T1, human κ opioid receptors (Homo sapiens, UniProt P41145); test: Opioid receptor function test (Lance Ultra cAMP kit, agonist activity); format: cell-based; details: CHO cells expressing human κ opioid receptors, 10 μM forskolin, 30 minutes
T1 construct: host or cells: CHO cells
Procedure: Opioid Receptor Function Test
The function activity of the compound of the present invention on κ opioid receptors was examined.
Method: Using a Lance Ultra cAMP kit (Perkin Elmer), the examination was performed according to a predetermined method. In evaluation of agonist activity, CHO cells expressing human κ opioid receptors (Catalog No. CT6606, accession No. NM_000912) and a test compound were reacted in an assay buffer (1×HSS, 5 mM HEPES, pH 7.4, 0.5 mM IBMX (isobutylmethyixanthine), 0.1% SA) in the presence of 10 μM forskolin for 30 minutes. Subsequently, a cAMP detection reagent in the kit was added. One hour later, time-resolved fluorescence measurement was performed using an EnVision plate reader (Perkin Elmer). The evaluation of the test compound was performed in a concentration range of 10^−14 to 10^−7 M for the κ opioid receptor function test.

T1 sequence (P41145 whole entry): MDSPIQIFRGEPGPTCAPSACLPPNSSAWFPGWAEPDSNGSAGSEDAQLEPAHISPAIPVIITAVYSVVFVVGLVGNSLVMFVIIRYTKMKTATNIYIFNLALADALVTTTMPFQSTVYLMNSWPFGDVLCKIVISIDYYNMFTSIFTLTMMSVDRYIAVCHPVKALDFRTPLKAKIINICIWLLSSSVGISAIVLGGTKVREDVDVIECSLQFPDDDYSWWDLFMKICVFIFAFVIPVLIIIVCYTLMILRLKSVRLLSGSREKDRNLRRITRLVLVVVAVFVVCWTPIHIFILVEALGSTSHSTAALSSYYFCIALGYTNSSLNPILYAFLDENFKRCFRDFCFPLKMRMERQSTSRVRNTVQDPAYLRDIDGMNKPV

First: Cc1cc(CC(=O)N2CC[C@]34CCN(CC5CC5)[C@H](Cc5ccc(O)cc53)[C@]4(O)CC2)ns1 [Example 168, 1-((5aS,6R,11bR)-14-(cyclopropylmethyl)-5a,10-dihydroxy-1,2,5,5a,6,7-hexahydro-6,11b-(epiminoethano)naphtho[1,2-d]azepin-3(4H)-yl)-2-(5-methylisothiazol-3-yl)ethan-1-one]
Second: Cc1cc(CC(=O)N2CC[C@]34CCN(CC5CC5)[C@H](Cc5ccc(O)cc53)[C@]4(O)CC2)no1 [Example 185, 1-((5aS,6R,11bR)-14-(cyclopropylmethyl)-5a,10-dihydroxy-1,2,5,5a,6,7-hexahydro-6,11b-(epiminoethano)naphtho[1,2-d]azepin-3(4H)-yl)-2-(5-methylisoxazol-3-yl)ethan-1-one]
The EC50 of the first is 8.3-fold lower: 0.047 nM for the first, 0.39 nM for the second.

First: O=C(CCn1cc(C(F)(F)F)cn1)N1CC[C@]23CCN(CC4CC4)[C@H](Cc4ccc(O)cc42)[C@]3(O)CC1 [Example 169, 1-((5aS,6R,11bR)-14-(cyclopropylmethyl)-5a,10-dihydroxy-1,2,5,5a,6,7-hexahydro-6,11b-(epiminoethano)naphtho[1,2-d]azepin-3(4H)-yl)-3-(4-(trifluoromethyl)-1H-pyrazol-1-yl)propan-1-one]
Second: Oc1ccc2c(c1)[C@@]13CCN(CCCn4cc(C(F)(F)F)cn4)CC[C@@]1(O)[C@@H](C2)N(CC1CC1)CC3 [Example 179, (5aS,6R,11bS)-14-(cyclopropylmethyl)-3-(3-(4-(trifluoromethyl)-1H-pyrazol-1-yl)propyl)-2,3,4,5,6,7-hexahydro-6,11b-(epiminoethano)naphtho[1,2-d]azepine-5a,10(1H)-diol]
The EC50 of the first is 3.9-fold higher: 0.094 nM for the first, 0.024 nM for the second. The second is the more potent here.

`O=C(CN1CCC(F)(F)C1)N1CC[C@]23CCN(CC4CC4)[C@H](Cc4ccc(O)cc42)[C@]3(O)CC1` [Example 181, 1-((5aS,6R,11bR)-14-(cyclopropylmethyl)-5a,10-dihydroxy-1,2,5,5a,6,7-hexahydro-6,11b-(epiminoethano)naphtho[1,2-d]azepin-3(4H)-yl)-2-(3,3-difluoropyrrolidin-1-yl)ethan-1-one] and `Oc1ccc2c(c1)[C@@]13CCN(CCN4CCC(F)(F)C4)CC[C@@]1(O)[C@@H](C2)N(CC1CC1)CC3` [Example 182, (5aS,6R,11bS)-14-(cyclopropylmethyl)-3-(2-(3,3-difluoropyrrolidin-1-yl)ethyl)-2,3,4,5,6,7-hexahydro-6,11b-(epiminoethano)naphtho[1,2-d]azepine-5a,10(1H)-diol] are within 1.5-fold of each other in EC50: 0.32 nM for the first, 0.22 nM for the second.

First: Oc1ccc2c(c1)[C@@]13CCN(CCn4cc(C5CC5)cn4)CC[C@@]1(O)[C@@H](C2)N(CC1CC1)CC3 [Example 183, (5aS,6R,11bS)-3-(2-(4-cyclopropyl-1H-pyrazol-1-yl)ethyl)-14-(cyclopropylmethyl)-2,3,4,5,6,7-hexahydro-6,11b-(epiminoethano)naphtho[1,2-d]azepine-5a,10(1H)-diol]
Second: Oc1ccc2c(c1)[C@@]13CCN(CCn4cc(F)cn4)CC[C@@]1(O)[C@@H](C2)N(CC1CC1)CC3 [Example 184, (5aS,6R,11bS)-14-(cyclopropylmethyl)-3-(2-(4-fluoro-1H-pyrazol-1-yl)ethyl)-2,3,4,5,6,7-hexahydro-6,11b-(epiminoethano)naphtho[1,2-d]azepine-5a,10(1H)-diol]
The EC50 of the first is 3.2-fold lower: 0.03 nM for the first, 0.095 nM for the second.

Going from `CN(C)CCC(=O)N1CC[C@]23CCN(CC4CC4)[C@H](Cc4ccc(O)cc42)[C@]3(O)CC1` [Example 186, 1-((5aS,6R,11bR)-14-(cyclopropylmethyl)-5a,10-dihydroxy-1,2,5,5a,6,7-hexahydro-6,11b-(epiminoethano)naphtho[1,2-d]azepin-3(4H)-yl)-3-(dimethylamino)propan-1-one] to `CN(C)CC(=O)N1CC[C@]23CCN(CC4CC4)[C@H](Cc4ccc(O)cc42)[C@]3(O)CC1` [Example 198, 1-((5aS,6R,11bR)-14-(cyclopropylmethyl)-5a,10-dihydroxy-1,2,5,5a,6,7-hexahydro-6,11b-(epiminoethano)naphtho[1,2-d]azepin-3(4H)-yl)-2-(dimethylamino)ethan-1-one], the EC50 falls from 0.99 nM to 0.59 nM (1.7-fold).

Compared with `Cc1cc(CCN2CC[C@]34CCN(CC5CC5)[C@H](Cc5ccc(O)cc53)[C@]4(O)CC2)no1` [Example 188, (5aS,6R,11bS)-14-(cyclopropylmethyl)-3-(2-(5-methylisoxazol-3-yl)ethyl)-2,3,4,5,6,7-hexahydro-6,11b-(epiminoethano)naphtho[1,2-d]azepine-5a,10(1H)-diol], `Oc1ccc2c(c1)[C@@]13CCN(CCc4ccsn4)CC[C@@]1(O)[C@@H](C2)N(CC1CC1)CC3` [Example 209, (5aS,6R,11bS)-14-(cyclopropylmethyl)-3-(2-(isothiazol-3-yl)ethyl)-2,3,4,5,6,7-hexahydro-6,11b-(epiminoethano)naphtho[1,2-d]azepine-5a,10(1H)-diol] is 14-fold lower in EC50: 0.69 nM for the first, 0.05 nM for the second.

Compared with `N#Cc1cnn(CCN2CC[C@]34CCN(CC5CC5)[C@H](Cc5ccc(O)cc53)[C@]4(O)CC2)c1` [Example 189, 1-(2-((5aS,6R,11bS)-14-(cyclopropylmethyl)-5a,10-dihydroxy-1,2,5,5a,6,7-hexahydro-6,11b-(epiminoethano)naphtho[1,2-d]azepin-3(4H)-yl)ethyl)-1H-pyrazole-4-carbonitrile], `CCc1cnn(CCN2CC[C@]34CCN(CC5CC5)[C@H](Cc5ccc(O)cc53)[C@]4(O)CC2)c1` [Example 193, (5aS,6R,11bS)-14-(cyclopropylmethyl)-3-(2-(4-ethyl-1H-pyrazol-1-yl)ethyl)-2,3,4,5,6,7-hexahydro-6,11b-(epiminoethano)naphtho[1,2-d]azepine-5a,10(1H)-diol] is 11-fold lower in EC50: 0.39 nM for the first, 0.035 nM for the second. The second is the more potent here.

Going from `O=C(CCc1ccccn1)N1CC[C@]23CCN(CC4CC4)[C@H](Cc4ccc(O)cc42)[C@]3(O)CC1` [Example 190, 1-((5aS,6R,11bR)-14-(cyclopropylmethyl)-5a,10-dihydroxy-1,2,5,5a,6,7-hexahydro-6,11b-(epiminoethano)naphtho[1,2-d]azepin-3(4H)-yl)-3-(pyridin-2-yl)propan-1-one] to `O=C(CCc1nccs1)N1CC[C@]23CCN(CC4CC4)[C@H](Cc4ccc(O)cc42)[C@]3(O)CC1` [Example 210, 1-((5aS,6R,11bR)-14-(cyclopropylmethyl)-5a,10-dihydroxy-1,2,5,5a,6,7-hexahydro-6,11b-(epiminoethano)naphtho[1,2-d]azepin-3(4H)-yl)-3-(thiazol-2-yl)propan-1-one], the EC50 rises from 0.32 nM to 0.72 nM (2.2-fold). The first is the more potent here.

Compared with `CCc1cc(CC(=O)N2CC[C@]34CCN(CC5CC5)[C@H](Cc5ccc(O)cc53)[C@]4(O)CC2)no1` [Example 191, 1-((5aS,6R,11bR)-14-(cyclopropylmethyl)-5a,10-dihydroxy-1,2,5,5a,6,7-hexahydro-6,11b-(epiminoethano)naphtho[1,2-d]azepin-3(4H)-yl)-2-(5-ethylisoxazol-3-yl)ethan-1-one], `CC(C)c1cnn(CCN2CC[C@]34CCN(CC5CC5)[C@H](Cc5ccc(O)cc53)[C@]4(O)CC2)c1` [Example 195, (5aS,6R,11bS)-14-(cyclopropylmethyl)-3-(2-(4-isopropyl-1H-pyrazol-1-yl)ethyl)-2,3,4,5,6,7-hexahydro-6,11b-(epiminoethano)naphtho[1,2-d]azepine-5a,10(1H)-diol] is 21-fold lower in EC50: 0.48 nM for the first, 0.023 nM for the second.

Reference: patent US20230087342A1, “AZEPANE DERIVATIVE” (Nippon Chemiphar Co., Ltd., priority 2019, published 2023)
